Experimental data taken from ChEMBL document CHEMBL4477250, “Discovery of novel potent imidazo[1,2-b]pyridazine PDE10a inhibitors” (Bioorg Med Chem Lett, 2016).
Activity calls are given as the source filed them. The rule behind the calls is not given here.

Columns and labels:
[1] = biological target: cAMP and cAMP-inhibited cGMP 3',5'-cyclic phosphodiesterase 10A (Homo sapiens, UniProt Q9Y233); assay: Inhibition of human recombinant full length PDE10A expressed in sf9 cells by scintillation proximity assay
[2] = Ratio of drug level in brain to plasma (unknown origin) after 2 hrs; assay type: ADME; settings: brain and plasma; read-out: BPR
Pancreatic islet [3] = assay: Induction of insulin secretion in human pancreatic islets at 15 mM in presence of glucose; assay type: functional, cell-based
Pancreatic islet [4] = assay: Induction of insulin secretion in human pancreatic islets at 30 mM in presence of glucose; assay type: functional, cell-based
Pancreatic islet [5] = assay: Induction of insulin secretion in human pancreatic islets at 1 uM in presence of glucose; assay type: functional, cell-based
Pancreatic islet [6] = assay: Induction of insulin secretion in human pancreatic islets at 2 to 12 mM; assay type: functional, cell-based
[7] = biological target: Dual specificity calcium/calmodulin-dependent 3',5'-cyclic nucleotide phosphodiesterase 1B (Homo sapiens, UniProt Q01064); assay: Inhibition of human PDE1B
[8] = biological target: cGMP-dependent 3',5'-cyclic phosphodiesterase (Homo sapiens, UniProt O00408); assay: Inhibition of human PDE2A
[9] = biological target: cGMP-inhibited 3',5'-cyclic phosphodiesterase 3B (Homo sapiens, UniProt Q13370); assay: Inhibition of human PDE3B
[10] = biological target: 3',5'-cyclic-AMP phosphodiesterase 4D (Homo sapiens, UniProt Q08499); assay: Inhibition of human PDE4D
[11] = biological target: cGMP-specific 3',5'-cyclic phosphodiesterase (Homo sapiens, UniProt O76074); assay: Inhibition of human PDE5A
[12] = biological target: High affinity 3',5'-cyclic-AMP phosphodiesterase 7A (Homo sapiens, UniProt Q13946); assay: Inhibition of human PDE7A
[13] = biological target: High affinity cGMP-specific 3',5'-cyclic phosphodiesterase 9A (Homo sapiens, UniProt O76083); assay: Inhibition of human PDE9A
[14] = biological target: 3',5'-cyclic phosphodiesterase; assay: Inhibition of human PDE; assay type: protein assay
Homo sapiens [15] = organism: Homo sapiens; assay: Selectivity ratio of IC50 for human PDE1B to IC50 for human recombinant full length PDE10A expressed in sf9 cells
Homo sapiens [16] = organism: Homo sapiens; assay: Selectivity ratio of IC50 for human PDE2A to IC50 for human recombinant full length PDE10A expressed in sf9 cells
Homo sapiens [17] = organism: Homo sapiens; assay: Selectivity ratio of IC50 for human PDE3B to IC50 for human recombinant full length PDE10A expressed in sf9 cells
Homo sapiens [18] = organism: Homo sapiens; assay: Selectivity ratio of IC50 for human PDE4D to IC50 for human recombinant full length PDE10A expressed in sf9 cells
Homo sapiens [19] = organism: Homo sapiens; assay: Selectivity ratio of IC50 for human PDE5A to IC50 for human recombinant full length PDE10A expressed in sf9 cells
Homo sapiens [20] = organism: Homo sapiens; assay: Selectivity ratio of IC50 for human PDE7A to IC50 for human recombinant full length PDE10A expressed in sf9 cells
Homo sapiens [21] = organism: Homo sapiens; assay: Selectivity ratio of IC50 for human PDE9A to IC50 for human recombinant full length PDE10A expressed in sf9 cells
Cytochrome P450 3A4 = Cytochrome P450 3A4 (Homo sapiens, UniProt P08684); assay: Inhibition of recombinant CYP3A4 (unknown origin); assay type: ADME
Cytochrome P450 2C9 = Cytochrome P450 2C9 (Homo sapiens, UniProt P11712); assay: Inhibition of recombinant CYP2C9 (unknown origin); assay type: ADME
Cytochrome P450 2C19 = Cytochrome P450 2C19 (Homo sapiens, UniProt P33261); assay: Inhibition of recombinant CYP2C19 (unknown origin); assay type: ADME
Cytochrome P450 2D6 = Cytochrome P450 2D6 (Homo sapiens, UniProt P10635); assay: Inhibition of recombinant CYP2D6 (unknown origin); assay type: ADME
Cytochrome P450 1A2 = biological target: T1, Cytochrome P450 1A2 (Homo sapiens, UniProt P05177); assay: Inhibition of recombinant CYP1A2 (unknown origin); assay type: ADME
T1 sequence (P05177 whole entry): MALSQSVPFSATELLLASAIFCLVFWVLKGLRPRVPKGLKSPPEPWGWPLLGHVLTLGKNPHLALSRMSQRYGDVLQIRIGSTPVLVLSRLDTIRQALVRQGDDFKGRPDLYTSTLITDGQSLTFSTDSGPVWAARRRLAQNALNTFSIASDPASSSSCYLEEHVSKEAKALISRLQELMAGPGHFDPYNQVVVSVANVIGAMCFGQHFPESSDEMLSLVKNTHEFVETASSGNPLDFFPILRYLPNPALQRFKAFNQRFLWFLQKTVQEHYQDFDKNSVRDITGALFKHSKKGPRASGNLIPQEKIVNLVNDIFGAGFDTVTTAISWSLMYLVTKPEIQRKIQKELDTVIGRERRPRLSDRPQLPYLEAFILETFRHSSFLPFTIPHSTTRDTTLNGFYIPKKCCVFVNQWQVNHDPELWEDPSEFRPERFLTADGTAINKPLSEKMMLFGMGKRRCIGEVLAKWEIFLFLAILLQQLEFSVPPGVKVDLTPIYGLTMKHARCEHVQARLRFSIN

[22] = Stability in human liver microsomes; assay type: ADME, Microsome
[23] = Stability in rat liver microsomes; assay type: ADME, Microsome
[24] = Stability in dog liver microsomes; assay type: ADME, Canis lupus familiaris, Microsome
[25] = Stability in mouse liver microsomes; assay type: ADME, Microsome
[26] = Oral bioavailability in rat at 10 mg/kg; assay type: ADME, organism-based; settings: in vivo
[27] = Cardiotoxicity in anesthetized guinea pig; assay type: toxicity, Cavia porcellus
[28] = biological target: Voltage-gated inwardly rectifying potassium channel KCNH2 (Homo sapiens, UniProt Q12809); assay: Inhibition of human ERG
[29] = Stability in cynomolgus monkey liver microsomes; assay type: ADME, Macaca fascicularis, Microsome
[30] = Clearance in rat at 10 mg/kg; assay type: ADME, organism-based; settings: in vivo
[31] = Half life in rat at 10 mg/kg, iv; assay type: ADME, organism-based; settings: in vivo
[32] = Cmax in rat at 10 mg/kg; assay type: ADME, organism-based; set-up: dose 10 mg/kg; settings: in vivo
[33] = Volume of distribution in steady state in rat at 10 mg/kg; assay type: ADME, organism-based; settings: in vivo, read-out: Vdss
Rattus norvegicus [34] = organism: Rattus norvegicus; assay: Induction of insulin secretion in rat pancreatic islets at 0.1 to 3 uM in presence of 3 mM glucose; assay type: functional
Rattus norvegicus [35] = organism: Rattus norvegicus; assay: Induction of insulin secretion in rat pancreatic islets at 0.1 to 3 uM in presence of 12 mM glucose; assay type: functional
Rattus norvegicus [36] = assay: Antidiabetic activity in fasted Sprague-Dawley rat assessed as reduction in blood glucose level at 3 to 30 mg/kg, po administered 3 hrs prior to glucose challenge measured up to 2 hrs by OGTT; assay type: functional, organism-based
Mus musculus = assay: Antidiabetic activity in ob/ob mouse assessed as reduction in blood glucose level at 5 to 20 mg/kg, po administered 3 hrs prior to glucose challenge measured up to 2 hrs by OGTT; assay type: functional, organism-based

Chain of cAMP and cAMP-inhibited cGMP 3',5'-cyclic phosphodiesterase 10A (Q9Y233 whole entry): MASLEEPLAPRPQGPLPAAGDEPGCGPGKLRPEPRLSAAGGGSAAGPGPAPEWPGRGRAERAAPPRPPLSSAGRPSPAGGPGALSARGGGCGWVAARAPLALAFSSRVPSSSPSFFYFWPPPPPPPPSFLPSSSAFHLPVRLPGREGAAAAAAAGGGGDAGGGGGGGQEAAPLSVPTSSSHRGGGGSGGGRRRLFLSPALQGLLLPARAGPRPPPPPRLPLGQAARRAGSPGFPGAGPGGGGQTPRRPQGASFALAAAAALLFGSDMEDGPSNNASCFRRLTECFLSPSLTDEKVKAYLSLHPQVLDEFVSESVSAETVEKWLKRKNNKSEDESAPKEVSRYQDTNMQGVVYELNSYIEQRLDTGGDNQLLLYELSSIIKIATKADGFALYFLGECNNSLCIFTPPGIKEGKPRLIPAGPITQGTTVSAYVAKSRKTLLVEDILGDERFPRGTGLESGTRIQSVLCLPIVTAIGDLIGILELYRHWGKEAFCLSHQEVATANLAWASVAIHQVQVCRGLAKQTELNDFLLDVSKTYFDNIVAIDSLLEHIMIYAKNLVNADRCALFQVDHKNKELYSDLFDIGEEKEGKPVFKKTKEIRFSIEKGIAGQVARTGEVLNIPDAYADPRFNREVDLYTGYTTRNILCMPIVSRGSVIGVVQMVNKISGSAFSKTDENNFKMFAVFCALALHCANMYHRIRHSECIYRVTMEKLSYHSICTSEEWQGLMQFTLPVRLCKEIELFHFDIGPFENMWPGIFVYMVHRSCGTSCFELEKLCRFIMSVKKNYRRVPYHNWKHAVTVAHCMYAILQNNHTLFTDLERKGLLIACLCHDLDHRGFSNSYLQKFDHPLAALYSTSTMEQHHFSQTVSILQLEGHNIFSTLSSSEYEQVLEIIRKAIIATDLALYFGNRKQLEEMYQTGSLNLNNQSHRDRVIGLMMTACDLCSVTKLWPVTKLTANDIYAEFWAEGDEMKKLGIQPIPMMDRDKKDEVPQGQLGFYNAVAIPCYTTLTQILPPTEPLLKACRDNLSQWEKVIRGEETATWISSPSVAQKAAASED
Chain of Cytochrome P450 2D6 (P10635 whole entry): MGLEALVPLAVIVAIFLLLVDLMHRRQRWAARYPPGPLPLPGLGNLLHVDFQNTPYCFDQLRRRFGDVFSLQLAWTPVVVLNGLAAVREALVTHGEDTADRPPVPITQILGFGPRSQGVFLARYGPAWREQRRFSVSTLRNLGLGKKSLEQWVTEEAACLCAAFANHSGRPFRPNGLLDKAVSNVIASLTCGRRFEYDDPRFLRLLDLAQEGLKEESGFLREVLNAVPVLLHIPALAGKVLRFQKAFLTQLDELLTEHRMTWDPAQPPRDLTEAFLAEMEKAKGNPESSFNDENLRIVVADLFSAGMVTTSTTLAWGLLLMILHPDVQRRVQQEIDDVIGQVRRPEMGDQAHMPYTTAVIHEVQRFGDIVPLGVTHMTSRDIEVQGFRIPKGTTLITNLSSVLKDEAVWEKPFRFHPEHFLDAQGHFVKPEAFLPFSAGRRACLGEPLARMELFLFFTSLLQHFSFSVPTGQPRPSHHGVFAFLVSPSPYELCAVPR
Chain of High affinity cGMP-specific 3',5'-cyclic phosphodiesterase 9A (O76083 whole entry): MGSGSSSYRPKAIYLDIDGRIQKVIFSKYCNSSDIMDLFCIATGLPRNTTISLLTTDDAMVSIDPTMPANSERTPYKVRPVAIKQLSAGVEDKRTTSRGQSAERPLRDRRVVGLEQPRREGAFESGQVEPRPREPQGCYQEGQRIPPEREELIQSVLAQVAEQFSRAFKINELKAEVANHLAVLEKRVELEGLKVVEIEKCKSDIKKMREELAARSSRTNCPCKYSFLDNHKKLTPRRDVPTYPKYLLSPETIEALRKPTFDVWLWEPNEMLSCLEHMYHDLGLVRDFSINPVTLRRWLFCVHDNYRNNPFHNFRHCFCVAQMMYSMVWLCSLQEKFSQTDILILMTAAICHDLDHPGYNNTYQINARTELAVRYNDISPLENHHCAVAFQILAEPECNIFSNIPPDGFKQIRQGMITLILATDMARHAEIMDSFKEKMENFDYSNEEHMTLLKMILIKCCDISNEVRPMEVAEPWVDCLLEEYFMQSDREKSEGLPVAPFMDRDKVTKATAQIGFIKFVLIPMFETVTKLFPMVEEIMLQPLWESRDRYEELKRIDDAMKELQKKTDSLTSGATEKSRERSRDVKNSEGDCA
Chain of cGMP-inhibited 3',5'-cyclic phosphodiesterase 3B (Q13370 whole entry): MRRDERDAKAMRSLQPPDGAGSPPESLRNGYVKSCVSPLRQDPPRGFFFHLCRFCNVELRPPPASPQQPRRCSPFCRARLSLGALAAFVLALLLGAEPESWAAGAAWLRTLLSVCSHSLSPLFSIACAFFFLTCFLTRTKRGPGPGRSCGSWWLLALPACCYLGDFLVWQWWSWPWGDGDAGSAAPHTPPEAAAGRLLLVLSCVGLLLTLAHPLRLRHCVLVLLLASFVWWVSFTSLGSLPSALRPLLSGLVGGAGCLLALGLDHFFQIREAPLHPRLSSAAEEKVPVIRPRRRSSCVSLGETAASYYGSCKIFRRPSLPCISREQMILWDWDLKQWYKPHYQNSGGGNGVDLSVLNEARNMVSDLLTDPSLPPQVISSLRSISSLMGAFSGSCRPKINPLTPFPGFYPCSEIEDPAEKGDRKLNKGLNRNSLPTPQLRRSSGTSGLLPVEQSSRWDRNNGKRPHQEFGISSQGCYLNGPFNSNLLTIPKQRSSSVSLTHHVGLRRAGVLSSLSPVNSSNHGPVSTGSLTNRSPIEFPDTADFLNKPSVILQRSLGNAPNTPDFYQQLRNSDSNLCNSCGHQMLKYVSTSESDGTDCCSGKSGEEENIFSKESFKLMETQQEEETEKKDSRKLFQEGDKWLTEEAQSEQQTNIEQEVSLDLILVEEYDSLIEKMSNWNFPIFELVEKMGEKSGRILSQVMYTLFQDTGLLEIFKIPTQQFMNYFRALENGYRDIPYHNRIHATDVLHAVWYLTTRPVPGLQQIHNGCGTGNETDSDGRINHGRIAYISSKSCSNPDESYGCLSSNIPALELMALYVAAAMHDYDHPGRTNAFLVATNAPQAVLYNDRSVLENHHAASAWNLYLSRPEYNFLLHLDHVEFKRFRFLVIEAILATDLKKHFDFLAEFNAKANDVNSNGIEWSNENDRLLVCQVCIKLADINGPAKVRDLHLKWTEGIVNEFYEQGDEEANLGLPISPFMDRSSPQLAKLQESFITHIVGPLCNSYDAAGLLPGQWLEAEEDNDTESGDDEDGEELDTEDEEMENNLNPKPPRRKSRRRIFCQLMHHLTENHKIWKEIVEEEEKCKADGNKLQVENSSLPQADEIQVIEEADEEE
Chain of Dual specificity calcium/calmodulin-dependent 3',5'-cyclic nucleotide phosphodiesterase 1B (Q01064 whole entry): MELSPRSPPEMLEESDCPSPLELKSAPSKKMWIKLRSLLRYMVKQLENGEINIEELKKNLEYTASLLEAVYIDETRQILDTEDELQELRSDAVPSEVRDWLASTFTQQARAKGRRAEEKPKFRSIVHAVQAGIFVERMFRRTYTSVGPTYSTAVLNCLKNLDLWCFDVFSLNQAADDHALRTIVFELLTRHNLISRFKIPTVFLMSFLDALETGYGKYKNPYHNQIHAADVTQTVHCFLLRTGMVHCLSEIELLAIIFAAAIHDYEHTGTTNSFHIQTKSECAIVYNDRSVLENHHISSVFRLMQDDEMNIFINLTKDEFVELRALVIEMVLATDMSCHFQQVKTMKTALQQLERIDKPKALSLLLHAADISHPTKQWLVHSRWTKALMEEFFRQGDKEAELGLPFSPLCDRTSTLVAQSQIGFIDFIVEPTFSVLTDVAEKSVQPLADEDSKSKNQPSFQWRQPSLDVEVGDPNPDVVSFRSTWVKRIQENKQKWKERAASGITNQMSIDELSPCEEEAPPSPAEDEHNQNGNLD
Chain of High affinity 3',5'-cyclic-AMP phosphodiesterase 7A (Q13946 whole entry): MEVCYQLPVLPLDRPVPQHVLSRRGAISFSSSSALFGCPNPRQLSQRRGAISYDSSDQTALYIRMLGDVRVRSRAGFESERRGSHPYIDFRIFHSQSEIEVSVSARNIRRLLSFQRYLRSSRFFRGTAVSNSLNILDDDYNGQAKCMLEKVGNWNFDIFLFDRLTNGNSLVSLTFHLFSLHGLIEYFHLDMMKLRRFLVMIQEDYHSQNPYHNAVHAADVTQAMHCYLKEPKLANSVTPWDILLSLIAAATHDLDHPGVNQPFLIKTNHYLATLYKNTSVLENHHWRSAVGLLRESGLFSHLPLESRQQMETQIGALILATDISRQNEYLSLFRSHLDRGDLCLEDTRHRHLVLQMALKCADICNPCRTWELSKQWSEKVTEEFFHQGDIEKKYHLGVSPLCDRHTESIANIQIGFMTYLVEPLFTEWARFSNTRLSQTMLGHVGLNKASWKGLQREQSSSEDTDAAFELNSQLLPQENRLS
Chain of Cytochrome P450 3A4 (P08684 whole entry): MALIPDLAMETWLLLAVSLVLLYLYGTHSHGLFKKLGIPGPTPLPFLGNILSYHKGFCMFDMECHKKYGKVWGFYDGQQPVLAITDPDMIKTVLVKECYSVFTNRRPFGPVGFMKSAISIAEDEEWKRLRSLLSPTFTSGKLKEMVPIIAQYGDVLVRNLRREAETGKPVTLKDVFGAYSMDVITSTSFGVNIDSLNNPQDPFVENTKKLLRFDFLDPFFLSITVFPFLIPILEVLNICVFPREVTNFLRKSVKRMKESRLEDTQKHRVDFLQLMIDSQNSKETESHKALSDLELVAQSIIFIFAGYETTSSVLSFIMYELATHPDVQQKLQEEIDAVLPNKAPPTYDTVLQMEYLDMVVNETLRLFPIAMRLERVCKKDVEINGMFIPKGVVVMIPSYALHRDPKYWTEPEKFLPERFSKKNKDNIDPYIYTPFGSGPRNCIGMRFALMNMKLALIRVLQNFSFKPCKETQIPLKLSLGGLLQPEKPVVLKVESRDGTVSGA

Structure (SMILES): Oc1nc(O)c(-c2ccc(-c3c(/C=C/c4ccc5ccccc5n4)nc4c(N5CCOCC5)ccnn34)cc2)o1
- IC50 [1]: 8.5 nM
- Kp at 2 h [2]: 0.01

Structure (SMILES): CS(=O)(=O)NC(=O)c1ccc(-c2c(C#Cc3ccc4ccccc4n3)nc3c(N4CCOCC4)ccnn23)cn1
- IC50 [1]: 2.1 nM
- Kp at 2 h [2]: 0.01

Structure (SMILES): N=C(N)NCCC[C@H](N)C(=O)O
- Activity (Pancreatic islet [3]): Active

Structure (SMILES): O=C(O)C1CCN(c2ccc(-c3c([C@H]4C[C@H](c5ccc6ccccc6n5)C4)nc4c(N5CCOCC5)ccnn34)cc2)CC1
- IC50 [1]: 3.2 nM
- Kp at 2 h [2]: 0.02

Structure (SMILES): [Cl-].[K+]
- Activity (Pancreatic islet [4]): Active

Structure (SMILES): COc1ccc(Cl)cc1C(=O)NCCc1ccc(S(=O)(=O)NC(=O)NC2CCCCC2)cc1
- Activity (Pancreatic islet [5]): Active

Structure (SMILES): c1ccc2nc(Cc3nc4c(N5CCOCC5)ccnn4c3-c3ccc(N4CCNCC4)nc3)ccc2c1
- IC50 [1]: 123 nM
- Kp at 2 h [2]: 0.45

Structure (SMILES): CC(=O)NS(=O)(=O)c1ccc(-c2c(/C=C/c3ccc4ccccc4n3)nc3c(N4CCOCC4)ccnn23)cc1
- IC50 [1]: 2.2 nM

Structure (SMILES): O=C(O)CCc1ccc(-c2c([C@H]3C[C@H](c4ccc5ccccc5n4)C3)nc3c(N4CCOCC4)ccnn23)cc1
- IC50 [1]: 2.4 nM

Structure (SMILES): O=C(O)C1CCN(c2ccc(-c3c(/C=C/c4ccc5ccccc5n4)nc4c(N5CCOCC5)ccnn34)cc2)CC1
- IC50 [1]: 4.4 nM
- Kp at 2 h [2]: 0.02

Structure (SMILES): NS(=O)(=O)N1CCN(c2c(CSc3ccc4ccccc4n3)nc3c(N4CCOCC4)ccnn23)CC1
- IC50 [1]: 13.8 nM
- Kp at 2 h [2]: 0.31

Structure (SMILES): OC[C@H]1OC(O)[C@H](O)[C@@H](O)[C@@H]1O (stereo partly specified)
- Activity (Pancreatic islet [6]): Active

Structure (SMILES): O=c1[nH]c(-c2ccc(-c3c(/C=C/c4ccc5ccccc5n4)nc4c(N5CCOCC5)ccnn34)cc2)no1
- IC50 [1]: 3.3 nM

Structure (SMILES): O=C(O)c1ccc(-c2c(/C=C/c3ccc4ccccc4n3)nc3c(N4CCOCC4)ccnn23)cc1
- IC50 [1]: 1.5 to 2 nM
- IC50 [7]: 6600 nM
- IC50 [8]: 5900 nM
- IC50 [9]: 6600 nM
- IC50 [10]: 4000 nM
- IC50 [11]: 5400 nM
- IC50 [12]: 4200 nM
- IC50 [13]: > 10000 nM
- IC50 [14]: 3000 nM
- Ratio IC50 (Homo sapiens [15]): 200
- Ratio IC50 (Homo sapiens [16]): 200
- Ratio IC50 (Homo sapiens [17]): 200
- Ratio IC50 (Homo sapiens [18]): 200
- Ratio IC50 (Homo sapiens [19]): 200
- Ratio IC50 (Homo sapiens [20]): 200
- Ratio IC50 (Homo sapiens [21]): 200
- IC50 (Cytochrome P450 3A4): > 10000 nM
- IC50 (Cytochrome P450 2C9): > 10000 nM
- IC50 (Cytochrome P450 2C19): > 10000 nM
- IC50 (Cytochrome P450 2D6): > 10000 nM
- IC50 (Cytochrome P450 1A2): > 10000 nM
- Stability [22]: Stable
- Stability [23]: Stable
- Stability [24]: Stable
- Stability [25]: Stable
- bioavailability [26]: 44%
- Activity [27]: Non-Toxic
- inhibition (INH) [28]: Not Active
- Stability [29]: Stable
- clearance [30]: 3.3 mL/min/kg
- half-life [31]: 6 to 6.1 h
- Cmax [32]: 2990 ng/mL
- Vd [33]: 0.47 L/kg
- Activity (Rattus norvegicus [34]): inactive
- Activity (Rattus norvegicus [35]): inactive
- Activity (Pancreatic islet [5]): Active
- Activity (Rattus norvegicus [36]): inactive
- Activity (Mus musculus): inactive

Structure (SMILES): Oc1ncn(-c2ccc(-c3c(/C=C/c4ccc5ccccc5n4)nc4c(N5CCOCC5)ccnn34)cc2)n1
- IC50 [1]: 7.4 nM

Structure (SMILES): O=C(O)c1ccc(-c2c([C@H]3C[C@H](c4ccc5ccccc5n4)C3)nc3c(N4CCOCC4)ccnn23)cc1
- IC50 [1]: 0.6 nM

Structure (SMILES): c1ccc2nc(SCc3nc4c(N5CCOCC5)ccnn4c3-c3ccc(N4CCNCC4)nc3)ccc2c1
- Kp at 2 h [2]: 0.82

Structure (SMILES): O=C(O)c1ccc(-c2c(CCc3ccc4ccccc4n3)nc3c(N4CCOCC4)ccnn23)cc1
- IC50 [1]: 1.2 nM
